Assay results published in US12146871B2, “Method and device for physicochemical characterization of materials” (THE SOLUBILITY COMPANY OY, priority 2016, dated 2024).

Assay: partition coefficient from intrinsic solubility in octanol and water by image analysis of individual crystals
Format: physicochemical
Conditions: octanol and water (separate solubilities); from aqueous solubility of the unionized form (pH 2-3) and solubility in octanol
Protocol: A solubility-pH profile was performed in aqueous buffers over the physiologically relevant range of pH 2-9. […] Additionally, using logP, pKa and pH data, the logD value was determined as a function of pH. All parameters determined using the present method correlated with theory and literature data. Thus, by only observing and characterizing one variable, i.e. the particle(s) size decrease of an individual crystal, it is possible to mine, in a high-content analysis (HCA) manner, a full physicochemical profile of six fundamental material characteristics for a material. Analysis device was constructed as a flow-through device consisting of two resistant flat metal plates. In the lower thereof a 1 mm hole was drilled as an outlet channel. The top metal plate hosted the inlet channel and was prepared with a glass window to facilitate detecting. A 0.2 μm inorganic membrane filter (Whatman nuclepore) was placed on the bottom plate and the particle(s) to be analyzed placed on top of the portion of the membrane filter being above the outlet channel. […] Equilibrium solubility, S was calculated from image analysis data based on a reorganized single-particle diffusion layer model dissolution rate equation, where S0 is the intrinsic solubility of the unionized form. Further, based on intrinsic solubility data in octanol and water the partition coefficient (logP) was determined according to, […]

Compound COc1ccc2c(c1)c(CC(=O)O)c(C)n2C(=O)c1ccc(Cl)cc1 [indomethacin] has a logP of 4.1.
